In patent US20130017548A1, “SCREENING METHOD” (AJINOMOTO, INC., priority 2009, published 2013):
One block for each molecule: values may come before it.

Experiments:
[1] = tested on: IL-12b expression in mouse peritoneal macrophage; assay: IL-12-production suppressive action by PIKfyve and Vac14 knockdown (siRNA, quantitative PCR); format: cell-based; conditions: siRNA 1 μM, mouse interferon-γ and SAC stimulation 3.5 hours, normalized to GAPDH; FIG. 4
Description: Assessment of the effects of knockdown of PIKfyve and Vac14 expressed in mouse peritoneal macrophage using siRNA method was carried out as described below. Mouse peritoneal macrophage was isolated according to the method described in Laboratory Test Example 2, and subsequently suspended in Nucleofection solution attached to Mouse macrophage nucleofection kit (Lonza) to give 3.3×10^6 cells/mL. siRNA was added to the cell suspension to a final concentration of 1 μM and subjected to Nucleofection according to the attached protocol. The following siRNAs were used. […]
A FBS-free RPMI1640 medium was used for culture at 37° C. in the presence of 5% CO2 for 2 hours and then the medium was replaced by 0.5 ml of Dulbecco's MEM medium containing RPMI 1640 medium supplemented with 3% FBS for culture at 37° C. in the presence of 5% CO2 for 4 hours. Subsequently, 3.3 ng/mL mouse interferon-γ and 0.0017% (v/v) SAC were added and cultured for 3.5 hours and then the expression level of cytokine mRNA in the cell was measured.
Extraction and purification of total RNA from the mouse peritoneal macrophage was carried out using RNeasy midi kit (Qiagen 75144) according to the attached protocol. […] The resultant removed of the remaining […] was used as cDNA for quantitative PCR. […]

PIKfyve = target: T1, PIKfyve (Homo sapiens, UniProt Q9Y2I7); assay: Assessment of lipid kinase inhibitory activity (competition with biotinyl acyl phosphate ATP derivative in Jurkat cell extract, LC-MS/MS); format: binding; conditions: test compound 30 nM or 300 nM, FIG. 1
T1 construct: the supernatant resulting from centrifugation at 100,000×g for 60 minutes was used as a cell extract; endogenous in cells; host or cells: Jurkat (human T-lymphocyte line), cell extract
T1 sequence (Q9Y2I7 whole entry): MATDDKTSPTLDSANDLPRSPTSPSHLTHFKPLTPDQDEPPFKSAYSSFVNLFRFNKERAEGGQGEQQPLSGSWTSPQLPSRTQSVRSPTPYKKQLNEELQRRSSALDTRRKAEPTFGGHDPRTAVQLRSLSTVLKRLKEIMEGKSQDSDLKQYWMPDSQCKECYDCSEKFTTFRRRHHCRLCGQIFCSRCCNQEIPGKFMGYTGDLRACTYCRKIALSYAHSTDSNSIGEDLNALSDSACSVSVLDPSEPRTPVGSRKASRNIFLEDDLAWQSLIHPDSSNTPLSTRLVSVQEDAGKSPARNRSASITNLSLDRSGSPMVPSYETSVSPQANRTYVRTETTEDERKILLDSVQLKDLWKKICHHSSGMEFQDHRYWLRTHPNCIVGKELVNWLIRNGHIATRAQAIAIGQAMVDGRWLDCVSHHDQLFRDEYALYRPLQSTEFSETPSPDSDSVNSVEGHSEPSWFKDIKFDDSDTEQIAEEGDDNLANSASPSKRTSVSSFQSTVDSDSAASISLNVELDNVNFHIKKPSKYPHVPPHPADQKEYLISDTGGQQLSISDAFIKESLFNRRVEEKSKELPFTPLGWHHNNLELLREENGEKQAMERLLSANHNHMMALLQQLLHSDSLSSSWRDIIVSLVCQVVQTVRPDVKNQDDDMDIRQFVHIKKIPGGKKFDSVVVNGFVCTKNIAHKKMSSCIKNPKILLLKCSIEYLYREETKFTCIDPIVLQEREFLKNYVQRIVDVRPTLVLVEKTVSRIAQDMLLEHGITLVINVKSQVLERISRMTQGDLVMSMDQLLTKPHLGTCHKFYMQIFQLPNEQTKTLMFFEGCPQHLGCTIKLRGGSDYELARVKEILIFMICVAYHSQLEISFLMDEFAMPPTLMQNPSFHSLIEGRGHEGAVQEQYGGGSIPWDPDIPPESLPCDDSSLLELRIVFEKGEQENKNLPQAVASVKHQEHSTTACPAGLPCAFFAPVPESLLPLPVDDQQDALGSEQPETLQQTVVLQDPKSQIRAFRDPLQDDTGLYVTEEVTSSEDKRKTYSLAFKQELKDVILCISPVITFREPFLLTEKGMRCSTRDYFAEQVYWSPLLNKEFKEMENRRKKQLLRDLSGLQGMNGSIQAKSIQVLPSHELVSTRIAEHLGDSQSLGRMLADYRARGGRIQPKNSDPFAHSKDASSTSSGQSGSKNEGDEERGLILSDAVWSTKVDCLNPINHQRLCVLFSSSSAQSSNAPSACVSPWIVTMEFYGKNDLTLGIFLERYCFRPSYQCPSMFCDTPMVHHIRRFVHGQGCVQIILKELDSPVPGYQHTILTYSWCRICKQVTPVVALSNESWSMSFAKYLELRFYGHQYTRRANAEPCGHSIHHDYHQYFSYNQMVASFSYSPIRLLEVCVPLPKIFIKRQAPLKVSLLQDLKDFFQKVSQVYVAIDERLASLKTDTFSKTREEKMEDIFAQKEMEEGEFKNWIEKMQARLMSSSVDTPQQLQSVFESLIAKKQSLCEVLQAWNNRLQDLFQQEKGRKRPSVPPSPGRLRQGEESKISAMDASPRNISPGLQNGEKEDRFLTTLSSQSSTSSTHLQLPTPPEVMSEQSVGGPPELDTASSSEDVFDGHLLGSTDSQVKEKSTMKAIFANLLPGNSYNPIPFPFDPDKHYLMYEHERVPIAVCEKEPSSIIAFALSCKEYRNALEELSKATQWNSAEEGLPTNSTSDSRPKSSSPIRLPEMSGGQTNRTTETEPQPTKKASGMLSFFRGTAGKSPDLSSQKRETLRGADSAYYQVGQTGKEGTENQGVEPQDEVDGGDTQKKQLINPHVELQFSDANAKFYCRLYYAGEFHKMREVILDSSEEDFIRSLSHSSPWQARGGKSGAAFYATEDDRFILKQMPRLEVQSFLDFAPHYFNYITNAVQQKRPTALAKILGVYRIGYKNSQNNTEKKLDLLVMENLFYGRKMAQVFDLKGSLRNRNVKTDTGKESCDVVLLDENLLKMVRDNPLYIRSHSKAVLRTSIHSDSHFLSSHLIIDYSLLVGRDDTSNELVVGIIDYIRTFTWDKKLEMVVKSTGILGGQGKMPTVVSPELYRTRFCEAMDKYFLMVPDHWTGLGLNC
Description: Lipid kinase inhibitory activity was assessed according to the method described in Biochemistry 2007, 46, 350-358. Jurkat cell derived from human lymphocyte was suspended in a lysis buffer (20 mM Hepes, 150 mM NaCl, 0.1% TritonX-100, 20 mM MnCl2) by sonication, and the supernatant resulting from centrifugation at 100,000×g for 60 minutes was used as a cell extract. To the cell extract (5 mg/mL), a test compound (30 nM or 300 nM) or a solvent alone was added and incubated for 5 minutes. Then, an ATP derivative labeled with biotinyl acyl phosphate (20 μM) was added and incubated for 5 minutes, and the resultant was further subjected to digestion with trypsin. […] The biotin-labeled peptide was analyzed by LC-MS/MS for sequence identification and measurement of the elution amount of the lipid-kinase-derived peptide so as to assess competitive inhibitory activity of the test compound for the binding of the ATP derivative to various lipid kinases. […]
Using this assessment system, the inhibitory activity of the test compound for other lipid kinases was assessed (other lipid kinases may be commercially available or may be produced according to a method described in a known document) and the results thereof are shown in FIG. 1.

[2] = tested on: mouse enterocolitis model; assay: Inflammation suppressive action in mouse IL-10-/- cell transfer enterocolitis model; format: in vivo; conditions: FIG. 3
Description: A method for producing a mouse IL-10^−/− cell transfer enterocolitis model is described, for example, in Gastroenterology. 2009 February; 136(2):564-74.e2. Epub 2008 Oct. 7.
Measurement of an intestine weight as a drug efficacy indicator was carried out according to the following method. On the last day for autopsy, large intestine from the anus to immediately before the cecum was removed. The content of the intestine was washed with physiological saline, water was roughly removed and then the weight was measured.
Results from the assessment of the inflammation suppressive action of Compound 1 in mouse enterocolitis model using this assessment system are shown in FIG. 3.

[3] = tested on: IL-12 and IL-23 productions; conditions: productions strongly induced by INF-γ; cited from earlier work

Molecule: Vac14 siRNA: Silencer Select Pre-designed siRNA (Sense SEQ ID NO: 11, Antisense SEQ ID NO:12, Ambion, s107929) as Vac14 siRNA (sense GAUUUACUCCAACAACCAATT; antisense UUGGUUGUUGGAGUAAAUCCT; chemistry not given here)
IL-12b expression (fold-change over basal) [1]: significantly suppressed

inhibitory activity against various lipid kinases (selectivity) (PIKfyve): inhibitory activity selective to PIKfyve
Molecule: Cc1cccc(C=NNc2cc(N3CCOCC3)n3nc(-c4ccncc4)cc3n2)c1 [Compound 1, N-(3-METHYL-BENZYLIDENE)-N′-(7-MORPHOLINE-4-YL-2-PYRIDINE-4-YL-PYRAZOLO[1,5-A]PYRIMIDINE-5-YL)-HYDRAZINE]
weight of the large intestine ([2]; 3, 10, 30 mg/kg, increase by IL-10-/- cell transfer): suppressed dependent on the dosage
suppressive action on large intestine weight ([2]; administration group of 30 mg/kg, once a day): Significant suppressive action

inhibitory activity against various lipid kinases (selectivity) (PIKfyve): inhibitory activity selective to PIKfyve
Molecule: C(=NNc1cc(N2CCOCC2)n2nc(-c3ccncc3)cc2n1)c1ccc2cc[nH]c2c1 [Compound 2, N-(1H-INDOLE-6-YLMETHYLENE)-N′-(7-MORPHOLINE-4-YL-2-PYRIDINE-4-YL-PYRAZOLO[1,5-A]PYRIMIDINE-5-YL)-HYDRAZINE]

Molecule: O=C1CCC(N2C(=O)c3ccccc3C2=O)C(=O)N1 (stereo not drawn) [thalidomide]
suppression of IL-12 and IL-23 productions [3]: cannot sufficiently suppress
